Results published in US20050159599A1, “Cyclic compound, process for producing the same, and pest control agent” (priority 2002, published 2005).

System: Spodoptera litura
Experiment: Insecticidal effect for Spodoptera litura by spraying treatment to host crop (Test Example 2)
Assay type: in vivo
Conditions: 100 ppm; sprayed on soybean; third-instar larvae of Spodoptera litura; fifth day after
Method: Insecticidal Effect for Spodoptera litura by Spraying Treatment to Host Crop
A pesticidal solution, which was prepared by dissolving 5 mg of test compound (represented by the compound Nos. in the above Examples) in 0.5-ml of acetone containing Tween 20 (trade name) and then diluting it to the prescribed concentration (100 ppm) with Dain (trade name, sticker) water diluted 5000-fold, was sprayed on a soybean whose primary leaves had developed completely with spray gun in the amounts wherein the pesticidal solution dripped. After drying the pesticidal solution, two primary leaves were cut off. The leaves were put into an ice cream cup (180 ml), and ten third-instar larvae of Spodoptera litura were set free therein. The cup was left in a temperature-controlled breeding room (25° C.). On the fifth day after, the number of surviving Spodoptera litura was examined. The rate of dead pests was calculated by the following formula. rate of dead pests (%)=(number of dead pests/number of test pests)×100

SMILES | rate of dead pests (%)
Cc1cc(SC(F)(F)F)c(Cl)cc1N1COCN(C(=O)c2c(F)cccc2Cl)C1=O [I-266] | 100
Cc1cc(SC(F)(F)F)c(Cl)cc1N1COCN(C(=O)c2c(F)cccc2F)C1=O [I-89] | 100
O=C(c1c(F)cccc1Cl)N1COCN(c2c(F)cc([S+]([O-])C(F)(F)F)cc2Cl)C1=O (centres unmarked) [I-279] | 100
CC(c1ccccc1)N1CN(C(=O)c2c(F)cccc2F)C(=O)N(c2ccc(Cl)cc2)C1 (centres unmarked) [III-14] | 100
O=C(c1c(F)cccc1Cl)N1COCN(c2ccc(SC(F)(F)C(F)(F)C(F)(F)F)cc2Cl)C1=O [I-323] | 100
Cc1cc([S+]([O-])C(F)(F)C(F)(F)C(F)(F)F)c(Cl)cc1N1COCN(C(=O)c2c(F)cccc2Cl)C1=O (centres unmarked) [I-330] | 100
Cc1c(N2COCN(C(=O)c3c(F)cccc3Cl)C2=O)ccc(SC(F)(F)F)c1Cl [I-299] | 100
CSc1cc(F)c(N2COCN(C(=O)c3c(F)cccc3F)C2=O)c(F)c1 [I-31] | 100
Cc1cc(SC(F)(F)F)c(F)cc1N1COCN(C(=O)c2c(F)cccc2Cl)C1=O [I-302] | 100
O=C(c1c(F)cccc1Cl)N1COCN(c2ccc([S+]([O-])C(F)(F)C(F)(F)C(F)(F)F)cc2Cl)C1=O (centres unmarked) [I-324] | 100
O=C(c1c(F)cccc1Cl)N1COCN(c2ccc(SC(F)(F)C(F)(F)C(F)(F)F)cc2F)C1=O [I-320] | 100
O=C(c1c(F)cccc1F)N1COCN(c2cc(Cl)c([S+]([O-])C(F)(F)F)cc2F)C1=O (centres unmarked) [I-99] | 100
O=C(c1c(F)cccc1F)N1COCN(c2ccc(SC(F)(F)C(F)Cl)cc2F)C1=O (centres unmarked) [I-7] | 100
Cc1cc(N2COCN(C(=O)c3c(F)cccc3F)C2=O)c(C)cc1SC(F)(F)F [I-86] | 100
O=C(c1c(F)cccc1Cl)N1COCN(c2ccc(SC(F)(F)F)c(Cl)c2)C1=O [I-254] | 100
CC(C)N1CN(C(=O)c2c(F)cccc2F)C(=O)N(c2cc(Cl)c(F)c(Cl)c2F)C1 [III-52] | 100
O=C(c1c(F)cccc1F)N1COCN(c2ccc(SC(F)(F)F)c(F)c2F)C1=O [I-107] | 100
O=C(c1c(F)cccc1Cl)N1COCN(c2cc(F)c(SC(F)(F)F)c(F)c2)C1=O [I-290] | 100
O=C(c1c(F)cccc1F)N1COCN(c2cc(Cl)c(OC(F)(F)C(F)F)c(Cl)c2)C1=O [I-5] | 100
O=C(c1c(F)cccc1F)N1CN(C2CC2)CN(c2cc(Cl)c(F)c(Cl)c2F)C1=O [III-53] | 100
CN1CN(C(=O)c2c(F)cccc2F)C(=O)N(c2cc(Cl)c(F)c(Cl)c2F)C1 [III-51] | 100

SMILES | rate of dead pests (%)
O=C(c1c(F)cccc1Cl)N1COCN(c2ccc([S+]([O-])C(F)(F)F)c(F)c2)C1=O (centres unmarked) [I-258] | 100
CC(=O)N1CN(C(=O)c2c(F)cccc2F)C(=O)N(c2ccc(SC(F)(F)F)cc2F)C1 [III-161, 1-(2,6-difluorobenzoyl)-3-[2-fluoro-4-(trifluoromethylthio)phenyl]-5-aceyltetrahydro-1,3,5-triazin-2(1H)-one] | 100
O=C(c1c(F)cccc1F)N1CN(Cc2ccccc2)CN(c2ccc(Cl)cc2)C1=O [III-4] | 100
O=C(c1c(F)cccc1Cl)N1COCN(c2ccc([S+]([O-])C(F)(F)F)c(Cl)c2Cl)C1=O (centres unmarked) [I-270] | 100
O=C(c1c(F)cccc1F)N1CN(C2CC2)CN(c2ccc(Oc3ccc(C(F)(F)F)cc3Cl)cc2F)C1=O [III-36] | 100
O=C(c1c(F)cccc1F)N1COCN(c2ccc(SC(F)(F)F)c(F)c2)C1=O [I-80] | 100
Cc1cc(SC(F)(F)C(F)(F)C(F)(F)F)c(Cl)cc1N1COCN(C(=O)c2c(F)cccc2Cl)C1=O [I-329] | 100
O=C(c1c(F)cccc1F)N1COCN(c2cc(F)c(SC(F)(F)F)c(F)c2)C1=O [I-113] | 100
O=C(c1c(F)cccc1F)N1COCN(c2ccc([S+]([O-])C(F)(F)F)c(Cl)c2F)C1=O (centres unmarked) [I-96] | 100
CSc1cc(F)c(N2COCN(C(=O)c3c(F)cccc3Cl)C2=O)c(F)c1 [I-208] | 100
O=C(c1c(F)cccc1F)N1CN(Cc2ccccc2)CN(c2ccc(Oc3ccc(C(F)(F)F)cc3Cl)cc2F)C1=O [III-29] | 100
O=C(c1c(F)cccc1Cl)N1COCN(c2c(F)cc([S+]([O-])C(F)(F)F)cc2F)C1=O (centres unmarked) [I-282] | 100
O=C(c1c(F)cccc1Cl)N1COCN(c2cc(Cl)c([S+]([O-])C(F)(F)F)cc2F)C1=O (centres unmarked) [I-276] | 100
O=C(c1c(F)cccc1Cl)N1COCN(c2c(F)cc(SC(F)(F)F)c(F)c2F)C1=O [I-293] | 100
O=C(c1c(F)cccc1F)N1COCN(c2c(F)cc([S+]([O-])C(F)(F)F)c(F)c2F)C1=O (centres unmarked) [I-117] | 100
Cc1cc(N2COCN(C(=O)c3c(F)cccc3Cl)C2=O)ccc1SC(F)(F)F [I-248] | 100
Cc1c(SC(F)(F)F)ccc(N2COCN(C(=O)c3c(F)cccc3F)C2=O)c1C [I-83] | 100
CN1CN(C(=O)c2c(F)cccc2F)C(=O)N(c2ccc(SC(F)(F)C(F)Cl)cc2F)C1 (centres unmarked) [III-76] | 100
Cc1cc([S+]([O-])C(F)(F)F)c(F)cc1N1COCN(C(=O)c2c(F)cccc2Cl)C1=O (centres unmarked) [I-303] | 100
O=C(c1c(F)cccc1Cl)N1COCN(c2c(F)c(F)c(SC(F)(F)F)c(F)c2F)C1=O [I-296] | 100
CN1CN(C(=O)c2c(F)cccc2F)C(=O)N(c2cc(Cl)c(OC(F)(F)C(F)C(F)(F)F)cc2Cl)C1 (centres unmarked) [III-69] | 100

Same assay, conditions: 120 h; 100 ppm; sprayed on soybean; third-instar larvae of Spodoptera litura; fifth day after; read-out: rate of dead pests (%)

SMILES | pest or weed control at 100 ppm [%]
O=C(c1c(F)cccc1F)N1CNCN(c2ccc(Cl)cc2)C1=O [III-6, 1-(4-chlorophenyl)-3-(2,6-difluorobenzoyl)tetrahydro-1,3,5-triazin-2(1H)-one] | 100
O=C(OCc1ccccc1)N1CN(C(=O)c2c(F)cccc2F)C(=O)N(c2ccc(Cl)cc2)C1 [III-7, 5-benzyloxycarbonyl-1-(4-chlorophenyl)-3-(2,6-difluorobenzoyl)tetrahydro-1,3,5-triazin-2 (1H)-one] | 100
O=C(OCc1ccccc1)N1CN(C(=O)c2c(F)cccc2F)C(=O)N(c2ccc(Oc3ccc(C(F)(F)F)cc3Cl)cc2F)C1 [III-22, 5-benzyloxycarbonyl-1-[4-(2-chloro-4-trifluoromethylphenoxy)-2-fluorophenyl]-3-(2,6-difluorobenzoyl)tetrahydro-1,3,5-triazin-2(1H)-one] | 100
CN1CN(C(=O)c2c(F)cccc2F)C(=O)N(c2ccc(Cl)cc2)C1 [III-1, 1-(4-chlorophenyl)-3-(2,6-difluorobenzoyl)-5-methyltetrahydro-1,3,5-triazin-2(1H)-one] | 100

Same assay, conditions: Spodoptera litura, in Glycine max, 120 h, read-out: rate of dead pests (%)

SMILES | pest or weed control at 100 ppm [%]
O=C(c1c(F)cccc1F)N1COCN(c2ccc(SC(F)(F)C(F)(F)C(F)(F)F)cc2F)C1=O [I-143, 3-(2,6-difluorobenzoyl)-5-[2-fluoro-4-(1,1,2,2,3,3,3-heptafluoro-1-propylthio)phenyl]tetrahydro-4H-1,3,5-oxadiazin-4-one] | 100
